Experiment: Topical application of the preparation to affected skin areas of plaque psoriasis patients
Type: in vivo, human
Conditions: twice daily, six to twelve weeks
Excerpt: The topical application using the preparation herein for treatment of psoriasis according to the present invention, to accelerate healing, merely requires a once to twice daily application of the formed preparation to the affected areas for a period of six to twelve weeks. Generally, no special precautions are required other than the general precautions which accompany the topical application of topical steroids to the skin. Evaluation of the effectiveness of the preparation herein, is by simple examination of the patient and reduction of rash and other skin symptoms, and by changes in the amounts of itching present.
Topical application of the preparation for plaque psoriasis treatment herein to affected skin areas, on a twice, daily basis, generally produces beneficial effects on plaque psoriasis when applied over a period of time between six to twelve weeks. […] The clearing noted lasting for a prolonged period after treatment. […]
In a regimen for treatment of plaque psoriasis patients, the preparation herein is mixed and provided to the patient for topical application twice daily for a period of six to twelve weeks, depending on the individual patient results which may be evaluated after each four to six week period by an examination of the areas of body of the patient, and the reduction or total clearing of rash and other skin symptoms in those area. […]

CCC(=O)O[C@]1(C(=O)CCl)[C@@H](C)C[C@H]2[C@@H]3CCC4=CC(=O)C=C[C@]4(C)[C@@]3(F)[C@@H](O)C[C@@]21C [clobetasol propionate]
outcome of topical treatment of plaque psoriasis (clearing of affected areas), in words: reduction or elimination of the plaque psoriasis

— US20180000836A1, “Topical Treatment for Psoriasis” (priority 2016, published 2018)
